Experimental data: patent publication US6511993B1, “Metalloprotease inhibitors” (priority 1999, dated 2003)

Row | melting point [°C] | Structure (SMILES)
1 | 213 to 214 | CNCc1cccc(-c2ccc(C3CCN(S(=O)(=O)C4(C(=O)NO)CCOCC4)CC3)cc2C)c1.Cl
2 | 152 to 154 | Cc1cc(C2CCN(S(=O)(=O)C(C)(C)C(=O)NO)CC2)ccc1-c1cccc(OC[C@@H](O)CO)c1 [Example 8, N-Hydroxy 2-[4-(4-{3-[(2S)-2,3-dihydroxy-1-propoxy]phenyl}-3-methylphenyl)-piperidin-1-ylsulphonyl]-2-methylpropanamide]
3 | 177 to 179 | Cc1cc(C2CCN(S(=O)(=O)C3(C(=O)NO)CCOCC3)CC2)ccc1-c1cccc(CN2CCOCC2)c1 [Example 17, N-Hydroxy 4-{[4-(3-methyl-4-{3-[4-morpholinylmethyl]}phenyl)piperidin-1-yl]sulphonyl}tetrahydro-2H-pyran-4-carboxamide]
4 | 215 to 218 | Cc1cc(C2CCN(S(=O)(=O)C3(C(=O)NO)CC(O)C(O)C3)CC2)ccc1-c1cccc(OCCO)n1 (stereo not drawn) [Example 21, (1α,3α,4α)-N,3,4-trihydroxy-1-[(4-{4-[6-(2-hydroxyethoxy)pyridin-2-yl]-3-methylphenyl}piperidin-1-yl)sulfonyl]cyclopentanecarboxamide]
5 | 204 to 205 | CCOc1cccc(-c2ccc(C3CCN(S(=O)(=O)C4(C(=O)NO)CC(O)C(O)C4)CC3)cc2C)n1 (stereo not drawn) [Example 22, (1α,3α,4α)-1-({4-[4-(6-ethoxypyridin-2-yl)-3-methylphenyl]piperidin-1-yl}sulfonyl)-N,3,4-trihydroxycyclopentanecarboxamide]
6 | 196 to 197 | CCOc1cccc(-c2ccc(C3CCN(S(=O)(=O)C4(C(=O)NO)CC(O)C(O)C4)CC3)cc2C)n1 (stereo not drawn) [Example 23, (1α,3β,4β)-1-({4-[4-(6-ethoxypyridin-2-yl)-3-methylphenyl]piperidin-1-yl}sulfonyl)-N, 3,4-trihydroxycyclopentanecarboxamide]
7 | 201 to 202 | COc1cccc(-c2ccc(C3CCN(S(=O)(=O)C4(C(=O)NO)CC(O)C(O)C4)CC3)cc2C)c1 (stereo not drawn) [Example 24, (1α,3α,4α)-N,3,4-trihydroxy-1-{4-[4-(3-methoxyphenyl)-3-methylphenyl]piperidin-1-ylsulfonyl}cyclopentanecarboxamide]
8 | 188 to 189 | COc1cccc(-c2ccc(C3CCN(S(=O)(=O)C4(C(=O)NO)CC(O)C(O)C4)CC3)cc2C)c1 (stereo not drawn) [Example 25, (1α,3β,4β)-N,3,4-trihydroxy-1-{4-[4-(3-methoxyphenyl)-3-methylphenyl]piperidin-1-ylsulfonyl}cyclopentanecarboxamide]
